This test has as its target T1, HCK (Homo sapiens, UniProt P08631).
T1 construct: purchased Thermo Fisher Scientific (Life Technologies) SelectScreen
The test can be described thus: SelectScreen Z'LYTE. Format: biochemical. The essentials:
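NU5455 was profiled across the SelectScreen Broad panel of kinase activity and binding assays. Z'LYTE reactions such as CSF1R ran at apparent Km ATP, while the Adapta CAMK1 assay used ATP listed as 10. Values are given as percent.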

Each structure is given as a SMILES string.

One may read the inhibition as the relative decrease from the control value, in per cent. A high value points to a strong effect.

T1 sequence (P08631 whole entry): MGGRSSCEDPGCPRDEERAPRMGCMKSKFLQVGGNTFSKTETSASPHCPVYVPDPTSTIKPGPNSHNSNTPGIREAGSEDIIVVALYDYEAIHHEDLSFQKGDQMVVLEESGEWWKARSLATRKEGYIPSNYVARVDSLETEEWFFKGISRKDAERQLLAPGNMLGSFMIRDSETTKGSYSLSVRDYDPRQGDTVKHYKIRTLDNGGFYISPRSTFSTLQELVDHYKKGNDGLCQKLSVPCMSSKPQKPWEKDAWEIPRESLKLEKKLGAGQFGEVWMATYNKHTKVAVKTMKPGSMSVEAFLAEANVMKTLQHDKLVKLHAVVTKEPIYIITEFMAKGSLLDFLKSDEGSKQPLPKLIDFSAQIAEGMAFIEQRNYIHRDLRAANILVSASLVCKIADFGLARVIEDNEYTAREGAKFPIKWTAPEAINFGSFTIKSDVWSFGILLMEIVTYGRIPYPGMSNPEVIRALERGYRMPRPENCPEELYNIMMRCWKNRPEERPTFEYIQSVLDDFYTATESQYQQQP

For the molecule `CN(C(=O)CN1CCOCC1)c1ccc2sc3c(-c4cccc5c(=O)cc(N6CC7CCC(C6)O7)oc45)cccc3c2c1` [NU5455], the inhibition at 1 µM amounted to 18%.

These data come from publication PMC6934184, “Selective DNA-PKcs inhibition extends the therapeutic index of localized radiotherapy and chemotherapy” (The Journal of Clinical Investigation, 2019).
